This note sets out measurements from PMC9673142, “1,3-Diarylpyrazolyl-acylsulfonamides Target HadAB/BC Complex in Mycobacterium tuberculosis” (ACS Infectious Diseases, 2022).

One data set deals with Mtb HadAB (Mycobacterium tuberculosis, UniProt I6WYY7+P9WFK1). As to the kind of experiment: biochemical. The following applies: trans-2-C16:1-CoA 60 μM, mean ± SD of duplicate assays.
In a further data set the test system is Mtb H37RvMA. As to the kind of experiment: microbe, parasite or virus in culture. As to conditions: Middlebrook 7H9/glycerol/ADC/tween-80. In kind it is cell-based.
The target of data set [1] is T1, BCG_0628c (lpqN, Rv0583c) (Mycobacterium tuberculosis, UniProt O53780).
T1 sequence (O53780 20-228): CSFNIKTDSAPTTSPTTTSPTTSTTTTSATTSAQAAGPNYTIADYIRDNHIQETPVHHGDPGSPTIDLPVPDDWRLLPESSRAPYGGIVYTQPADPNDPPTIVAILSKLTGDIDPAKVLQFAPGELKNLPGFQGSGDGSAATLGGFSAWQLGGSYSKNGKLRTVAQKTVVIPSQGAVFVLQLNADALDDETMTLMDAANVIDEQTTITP
As to the kind of experiment: biochemical. The data set is classed as binding, Mycobacterium bovis BCG.

A further data set deals with BCG_2231 (DlaT, Rv2215) (Mycobacterium bovis, UniProt P65634). Nature of the data set: biochemical. In kind it is binding, Mycobacterium bovis BCG.
The next data set relates to HepG2. As to the kind of experiment: HepG2 cytotoxicity. As to conditions: Homo sapiens.
Data set [2] concerns the target HadA, HadB, BCG_0547c (HadD) (Mycobacterium bovis BCG, UniProt I6WYY7+P9WFK1). Nature of the data set: biochemical. In kind it is binding. The following applies: for competition from the bead matrices, HadA, HadB and HadD: at 0.49 μM, n = 3.
A further data set relates to Mtb. The data set is classed as cell-based, Mycobacterium tuberculosis.
The next data set relates to Mtb H37Rv. As to the kind of experiment: microbe, parasite or virus in culture. In kind it is cell-based. The following applies: Mycobacterium tuberculosis.
For another data set, the system named is Mtb H37Rv mc^26206. Nature of the data set: microbe, parasite or virus in culture. The data set is classed as cell-based. As to conditions: Mycobacterium tuberculosis, read-out: MIC Mtb WT.
The test system of another data set is Mtb HadBC. The data set is classed as biochemical. As to conditions: compound 50 μM, HadBC 130 nM, trans-2-C16:1-CoA 25 μM.
The subject of data set [3] is mycolic acid biosynthesis in Mtb H37Rv mc^26206. The data set is classed as cell-based. The following applies: 3× MIC, 24 h.
[4] abbreviates: HepG2, read-out: HepG2 IC50 (galactose).
Setting [5] is: HepG2, read-out: HepG2 IC50 (glucose).

SMILES strings stand for the structures. ≈ marks a conversion by molar mass, not a printed value. Where “and” joins values, the source holds several entries; their conditions need not be identical. Identical values can stand only once. Entries after “also recorded” stand apart in the source; their conditions may differ. Like-named read-outs stand apart in the source and are kept apart here. A value given as a limit tells only on which side of the number the result lay.

Broadly, the IC50 is the concentration that gives 50% inhibition. Broadly, the Kd is the constant that tells how readily two partners part at equilibrium. Read a low Kd as tighter binding. The solubility is the dissolved amount per volume that the medium holds. A high value points to a readily soluble substance. Consider `CS(=O)(=O)NC(=O)CCc1cn(-c2ccc(Br)cc2)nc1-c1ccncc1` [Compound 1], for which the IC50 on Mtb HadAB (HadAB IC50, HadAB 22 nM) is 100 ± 10 nM; in the data set with HepG2 (setting [4]) it was greater than 50000 nM; with HepG2 (setting [5]), greater than 50000 nM; in data set [2] it was less than 160 nM. Besides, the “Compound 1 MIC, H37RvMA (WT reference strain)” value in the data set with Mtb H37RvMA is 1.9 µM. Moreover, the MIC in the data set on Mtb H37RvMA (Mycobacterium tuberculosis, H37RVMA, read-out: Compound 1 MIC, H37RvMA (WT reference strain)) amounted to 1.9 µM (≈ 0.854 µg/mL). Further, the dissociation constant (Kd) in data set [1] was 1800 nM; on BCG_2231 (DlaT, Rv2215), 1000 nM. In “physchem”, the concentration in solution (solubility) came to 190 µM (≈ 85.4 µg/mL). In addition, the “competition from the bead matrices, HadA, HadB and HadD” value in [2] was 91–92%. Further, the “Mtb pMIC99” value in the data set on Mtb is on record as 6.2.

With `CS(=O)(=O)NC(=O)CCc1cn(-c2ccc(Cl)cc2)nc1-c1ccc(Cl)cc1` [Compound 2], the MIC in the data set on Mtb H37Rv (read-out: Mtb MIC) is 4.7 µM (≈ 2.06 µg/mL); with Mtb H37Rv (read-out: Mtb MIC (Middlebrook 7H9/DPCC/casitone/Tx)), 0.8 µM (≈ 0.351 µg/mL); in the data set on Mtb H37Rv (read-out: Mtb MIC (Middlebrook 7H9/DPPC/cholesterol/BSA/Tx)), 4.7 µM (≈ 2.06 µg/mL); in the data set on Mtb H37Rv (read-out: Mtb MIC (Middlebrook 7H9/casitone/Tx)), 0.6 µM (≈ 0.263 µg/mL); with Mtb H37Rv (read-out: Mtb MIC (Middlebrook 7H9/glucose/BSA/Tx)), 4.7 µM (≈ 2.06 µg/mL); in the data set on Mtb H37Rv mc^26206, less than 0.625 µM. The IC50 is 130 ± 20 nM against Mtb HadAB (HadAB IC50, HadAB 22 nM); greater than 50000 nM with HepG2 (setting [4]); greater than 50000 nM in the data set with HepG2 (setting [5]); less than 490 nM in data set [2]. At BCG_2231 (DlaT, Rv2215), this molecule displayed a dissociation constant Kd of 6600 nM. The molecule further registered a solubility in the data set “physchem” of 100 µM (≈ 43.8 µg/mL). In [2], the “competition from the bead matrices, HadA, HadB and HadD” value was 56–62%. Further, in the data set on Mtb, the “Mtb pMIC99” value came out at 5.5. Moreover, the “HadBC % inhibition at 50 μM” value in the data set with Mtb HadBC is listed as “did not inhibit; also recorded: No inhibition”.

Take `CS(=O)(=O)NC(=O)CCc1cn(-c2ccc(Cl)cc2)nc1-c1ccc(C#CCN)cc1` [Compound 4]: the “Mtb pMIC99” value with Mtb worked out at 5.4.

For `CS(=O)(=O)NC(=O)CCc1cn(-c2ccc(Br)cc2)nc1-c1ccc(Cl)cc1` [Compound 9], the IC50 at Mtb HadAB (HadAB 22 nM, read-out: HadAB IC50) turned out to be 30 ± 10 nM.

For `O=C(O)CCc1cn(-c2ccc(Br)cc2)nc1-c1ccc(Cl)cc1` [Compound 10], the MIC in the data set with Mtb H37Rv (read-out: Mtb MIC) was greater than 50 µM; in the data set with Mtb H37Rv mc^26206, 1.5 µM (≈ 0.609 µg/mL). The molecule also yielded an IC50 at Mtb HadAB (HadAB IC50, HadAB 22 nM) of 3300 ± 1700 nM. For the same molecule, in the data set on Mtb HadBC, the “HadBC % inhibition at 50 μM” value was “No inhibition”.

Take `CS(=O)(=O)NC(=O)NCc1cn(-c2ccc(C(F)(F)F)nc2)nc1-c1ccncc1` [Compound 11]: the concentration for half-maximal inhibition (IC50) against Mtb HadAB (HadAB IC50, HadAB 22 nM) is 62 nM and 60 nM. Further, the MIC in the data set on Mtb H37Rv mc^26206 worked out at 0.625 µM (≈ 0.275 µg/mL).

On to `O=c1[nH]nc(CCc2cn(-c3ccc(Br)cc3)nc2-c2ccc(Cl)cc2)o1` [Compound 12], for which the MIC in the data set with Mtb H37Rv (read-out: Mtb MIC) was determined as 19 µM (≈ 8.47 µg/mL); with Mtb H37Rv mc^26206, 3.12 µM (≈ 1.39 µg/mL). The IC50 at Mtb HadAB (HadAB IC50, HadAB 22 nM) was 4240 nM and 4200 nM.

As to `CS(=O)(=O)c1nnc(Cc2cn(-c3ccc(Cl)cc3)nc2-c2ccncc2)o1` [Compound 13], the MIC in the data set on Mtb H37Rv (read-out: Mtb MIC) was 62.5 µM (≈ 26 µg/mL); with Mtb H37Rv mc^26206, 3.75 µM (≈ 1.56 µg/mL). The molecule also registered an IC50 at Mtb HadAB (HadAB IC50, HadAB 22 nM) of 102000 ± 17000 nM. The “inhibition of biosynthesis of mycolic acids” value in [3] is recorded as 0–49%. The “HadBC % inhibition at 50 μM” value in the data set with Mtb HadBC is reported as 37±5%.

`CS(=O)(=O)NC(=O)NCc1cc(-c2ccc(Br)cc2)oc1-c1ccncc1` [Compound 14] returned a 50% inhibitory concentration (IC50) against Mtb HadAB (HadAB IC50, HadAB 22 nM) of 20 ± 10 nM. Also, the MIC in the data set on Mtb H37Rv mc^26206 was less than 0.243 µM.

Take `CCc1c(COC(=O)NS(C)(=O)=O)c(-c2ccc(Cl)cc2)nn1-c1ccc(Cl)cc1` [Compound 15]: the MIC in the data set with Mtb H37Rv (read-out: Mtb MIC) is greater than 50 µM; in the data set on Mtb H37Rv mc^26206, 3.9 µM (≈ 1.83 µg/mL). On Mtb HadAB (HadAB IC50, HadAB 22 nM), the IC50 was 28000 nM. Moreover, the “HadBC % inhibition at 50 μM” value with Mtb HadBC was “No inhibition”.
